Earlier results, collected in US20210386367A1, “DEVICES AND SYSTEMS FOR GASTROINTESTINAL MICROBIOME DETECTION AND MANIPULATION” (Progenity, Inc., priority 2018, published 2021).
Converted amounts (≈) assume the structure as drawn. Where two headings read alike, the source gives them in different places.

Assays:
Conditions in all cases: cited from earlier work
[1] = tested on: Fusobacterium nucleatum
[2] = tested on: Escherichia coli
[3] = tested on: Lactobacillus spp.
[4] = tested on: Bacteroides fragilis
[5] = tested on: Fusobacterium spp
[6] = tested on: Prevotella spp.
[7] = tested on: Bacteroides spp.
[8] = tested on: Staphylococcus aureus
[9] = tested on: Veillonella spp
[10] = tested on: Proteus mirabilis
[11] = tested on: Enterobacter spp.
[12] = tested on: Haemophilus influenzae
[13] = tested on: Citrobacter spp.
[14] = tested on: Prevotella melanogenica
[15] = tested on: Citrobacter spp.; remark: listed apart in the source
[16] = tested on: E. coli ATCC 35218 (TEM-1 β-lactamase producer)
[17] = tested on: Bacteroides vulgatus
[18] = tested on: XDR Enterobacteriaceae
[19] = tested on: Veillonella
[20] = tested on: MDR Enterobacteriaceae
[21] = tested on: Escherichia coli; remark: listed apart in the source
[22] = tested on: Klebsiella spp.
[23] = tested on: Pseudomonas aeruginosa
[24] = tested on: Prevotella bivia
[25] = tested on: Fusobacterium spp; remark: listed apart in the source
[26] = tested on: Bacteroides ovatus
[27] = tested on: Enterobacter spp.; remark: listed apart in the source
[28] = tested on: Bacteroides fragilis; remark: listed apart in the source
[29] = tested on: Staphylococcus aureus; remark: listed apart in the source
[30] = tested on: Enterococcus faecalis
[31] = tested on: Enterococcus spp.
[32] = tested on: Bacteroides spp
[33] = tested on: Bacteroides thetaiotaomicron
[34] = tested on: Enterobacteriaceae

In the case of `CO/N=C(\C(=O)N[C@@H]1C(=O)N2C(C(=O)O)=C(CSc3nc(=O)c(=O)[nH]n3C)CS[C@H]12)c1csc(N)n1` [ceftriaxone], the “% S” value [1] is listed as 100%, the MIC50 [1] is listed as 0.125 µg/mL (≈ 0.225 µM) and the MIC90 [1] is listed as 0.5 µg/mL (≈ 0.902 µM). The “MIC range” value [1] was 0.015 to 1 µg/mL, the “% S” value [2] was 87% and the MIC50 [2] was ≤0.25 µg/mL. The MIC90 [2] was 32 µg/mL (≈ 57.7 µM), the MIC50 [3] was 4 µg/mL (≈ 7.21 µM) and the MIC90 [3] was 8 µg/mL (≈ 14.4 µM). For the same molecule, the “MIC range” value [3] was 0.12 to 64 µg/mL, the “% S” value [4] was 15% and the MIC50 [4] was 32 µg/mL (≈ 57.7 µM). The MIC90 [4] was >32 µg/mL, the “% S” value [5] was 87% and the MIC50 [5] was 0.5 µg/mL (≈ 0.902 µM). For the same molecule, the MIC90 [5] was 32 µg/mL (≈ 57.7 µM), the “% S” value [6] was 90% and the MIC50 [6] was 1 µg/mL (≈ 1.8 µM). The MIC90 [6] was 8 µg/mL (≈ 14.4 µM), the “MIC range” value [6] was ≤0.008 to 64 µg/mL and the MIC50 [7] was >128 µg/mL. For the same molecule, the MIC90 [7] was >128 µg/mL, the “% S” value [8] was 54.5% and the MIC50 [8] was 4 µg/mL (≈ 7.21 µM). The MIC90 [8] was >8 µg/mL, the “% S” value [9] was 79% and the MIC50 [9] was 4 µg/mL (≈ 7.21 µM). For the same molecule, the MIC90 [9] was 8 µg/mL (≈ 14.4 µM) and the “MIC range” value [9] was 0.03 to 8 µg/mL.
For `C[C@@H](O)[C@H]1C(=O)N2C(C(=O)O)=C(S[C@@H]3CN[C@H](C(=O)N(C)C)C3)[C@H](C)[C@H]12` [meropenem], the “% S” value [10] is given as 99.4%, the MIC50 [10] is given as 0.06 µg/mL (≈ 0.156 µM) and the MIC90 [10] is given as 0.12 µg/mL (≈ 0.313 µM). For the same molecule, the “% S” value [11] was 57.5%, the MIC50 [11] was 0.5 µg/mL (≈ 1.3 µM) and the MIC90 [11] was 64 µg/mL (≈ 167 µM). For the same molecule, the MIC50 [12] was ≤0.125 µg/mL, the MIC90 [12] was 0.5 µg/mL (≈ 1.3 µM) and the “% S” value [13] was 99%. The MIC50 [13] was 0.03 µg/mL (≈ 0.0782 µM), the MIC90 [13] was 0.06 µg/mL (≈ 0.156 µM) and the “% S” value [14] was 100%. The MIC50 [14] was 0.06 µg/mL (≈ 0.156 µM), the MIC90 [14] was 0.25 µg/mL (≈ 0.652 µM) and the “MIC range” value [14] was ≤0.03 to 0.25 µg/mL. For the same molecule, the “% S” value [15] was 86.4%, the MIC50 [15] was ≤0.06 µg/mL and the MIC90 [15] was 4 µg/mL (≈ 10.4 µM). The “CLSI QC range (MIC)” value [16] was “(0.008-0.06) μg/mL”, the “% S” value [17] was 100% and the MIC50 [17] was 0.5 µg/mL (≈ 1.3 µM). For the same molecule, the MIC90 [17] was 1 µg/mL (≈ 2.61 µM), the “MIC range” value [17] was 0.125 to 1 µg/mL and the “% S” value [18] was 20.5%. The MIC50 [18] was 8 µg/mL (≈ 20.9 µM), the MIC90 [18] was >8 µg/mL and the “% S” value [19] was 100%. For the same molecule, the MIC50 [19] was ≤0.03 µg/mL, the MIC90 [19] was ≤0.03 µg/mL and the “MIC range” value [19] was ≤0.03 to 0.25 µg/mL. The “% S” value [20] was 75%, the MIC50 [20] was ≤0.12 µg/mL and the MIC90 [20] was >8 µg/mL. For the same molecule, the “% S” value [21] was 83.1%, the MIC50 [21] was ≤0.06 µg/mL and the MIC90 [21] was 32 µg/mL (≈ 83.4 µM). For the same molecule, the “% S” value [22] was 78.3%, the MIC50 [22] was ≤0.06 µg/mL and the MIC90 [22] was >8 µg/mL. For the same molecule, the “% S” value [23] was 64.2%, the MIC50 [23] was 1 µg/mL (≈ 2.61 µM) and the MIC90 [23] was >8 µg/mL. The “% S” value [24] was 100%, the MIC50 [24] was 0.03 µg/mL (≈ 0.0782 µM) and the MIC90 [24] was ≤0.03 µg/mL. The “MIC range” value [24] was ≤0.03 to 0.06 µg/mL.
For `CO[C@H]1/C=C/O[C@@]2(C)Oc3c(C)c(O)c4c(O)c(c5c(nc6cc(C)ccn65)c4c3C2=O)NC(=O)/C(C)=C\C=C\[C@H](C)[C@H](O)[C@@H](C)[C@@H](O)[C@@H](C)[C@H](OC(C)=O)[C@@H]1C` [rifaximin], the MIC50 [25] is listed as 8 µg/mL (≈ 10.2 µM), the MIC90 [25] is listed as >1024 µg/mL and the MIC50 [26] is listed as 1 µg/mL (≈ 1.27 µM). The MIC90 [26] was 1 µg/mL (≈ 1.27 µM), the “% S” value [27] was 34.8% and the MIC50 [27] was 64 µg/mL (≈ 81.4 µM). For the same molecule, the MIC90 [27] was 128 µg/mL (≈ 163 µM), the “MIC range” value [27] was 32 to 128 µg/mL and the MIC50 [28] was 0.25 µg/mL (≈ 0.318 µM). For the same molecule, the MIC90 [28] was >1024 µg/mL, the “% S” value [29] was 100% and the MIC50 [29] was ≤0.25 µg/mL. For the same molecule, the MIC90 [29] was ≤0.25 µg/mL, the “MIC range” value [29] was ≤0.25 µg/mL and the “% S” value [30] was 100%. For the same molecule, the MIC50 [30] was 4 µg/mL (≈ 5.09 µM), the MIC90 [30] was 16 µg/mL (≈ 20.4 µM) and the “MIC range” value [30] was ≤0.25 to 16 µg/mL. The MIC50 [31] was 4 µg/mL (≈ 5.09 µM), the MIC90 [31] was 32 µg/mL (≈ 40.7 µM) and the “MIC range” value [31] was ≤0.06 to 32 µg/mL. The MIC50 [32] was >1024 µg/mL, the MIC90 [32] was >1024 µg/mL and the MIC50 [33] was 1 µg/mL (≈ 1.27 µM). The MIC90 [33] was >1024 µg/mL, the MIC50 [34] was 32 µg/mL (≈ 40.7 µM) and the MIC90 [34] was >128 µg/mL.
